We go through three compounds from patent publication US20190322698A1, “WATER-SOLUBLE ALLOPR[…] USE THEREOF” (JIANGSU NHWALUOKANG PHARMACEUTICAL RESEARCH AND DEVELOPMENT …, priority 2016, published 2019).

Each structure is given as a SMILES string.

A short description of data set [1]: Stability test of the compounds in a 5% aqueous glucose solution. The format is physicochemical. The settings on record: room temperature; for Dissociation percent (%): 5% glucose solution, about 0.5 mg/ml, HPLC; for Solution: appearance of the about 0.5 mg/ml solution in 5% glucose. As for the experimental part: Each of the compounds to be tested was weighed (1 mg), placed in a 5% glucose solution (2 ml) and formulated into a solution having a concentration of about 0.5 mg/ml. The solution stood at room temperature, and was sampled at several time points (0.5 h, 1 h, 2 h, 3 h and 5 h).

Data set [2] can be described thus: Solubility of the compounds in water (25° C.). The class given is physicochemical.
Data set [3] in a line: Dissociation test of the compounds in whole blood of rats. The format is in vitro ADME. To be noted: rat whole blood, 37° C., HPLC. As for the experimental part:
Each of the compounds to be tested was weighed (1 mg), placed in water (2 ml), and formulated into a solution having a concentration of about 0.5 mg/ml as a stock solution for further use. Whole blood of rats (0.45 ml) was taken and placed in a 2 ml EP tube, which was placed in a 37° C. water bath for preheating for 20 seconds. Then the stock solution of the compound (50 μL) was added quickly. After a homogeneous mixing, the EP tube was placed in a 37° C. water bath, and time counting was initiated. Acetonitrile (1 ml) was injected immediately at predetermined time points (1 min, 3 min, 5 min, 15 min). The solution was centrifuged for 5 min (15000 rpm), filtered with a 0.22 μm filtration membrane and subjected to HPLC detection, and the results were given below: […]

On to `CC(=O)C1CCC2C3CCC4CC(OC(=O)C(F)C(=O)[O-])CCC4(C)C3CCC12C.[Na+]` (stereo not drawn) [Compound 10], for which the “Dissociation percent (%)” value in data set [1] (0 h) is 0.02%; in data set [1] (0.5 h), 0.14%; in data set [1] (1 h), 0.21%; in data set [1] (2 h), 0.36%; in data set [1] (3 h), 0.51%; in data set [1] (5 h), 0.86%. Further, the “Dissociation percent (%)” value in data set [3] (1 min) is 39.78%; in data set [3] (3 min) it was 52.28%; in data set [3] (5 min), 72.31%; in data set [3] (15 min), 100%. Also, the Solution result in data set [1] is on record as “Clear”. For the same compound, the “Solubility” value in data set [2] is over 400 µg/mL.
With `CC(=O)C1CCC2C3CCC4CC(OC(=O)C(F)CC(=O)[O-])CCC4(C)C3CCC12C.[Na+]` (stereo not drawn) [Compound 11], the “Dissociation percent (%)” value in data set [1] (0 h) came out at 0.02%; in data set [1] (0.5 h) it was 0.11%; in data set [1] (1 h) it was 0.19%; in data set [1] (2 h) it was 0.32%; in data set [1] (3 h), 0.49%; in data set [1] (5 h), 0.79%. In addition, the “Dissociation percent (%)” value in data set [3] (1 min) is 40.83%; in data set [3] (3 min), 50.35%; in data set [3] (5 min), 69.32%; in data set [3] (15 min), 100%. In addition, in data set [1], the Solution result was “Clear”. Besides, the “Solubility” value in data set [2] is over 400 µg/mL.
On to `CC(=O)C1CCC2C3CCC4CC(OC(=O)C(F)CCOP(=O)([O-])[O-])CCC4(C)C3CCC12C.[Na+].[Na+]` (stereo not drawn) [Compound 16], for which the “Dissociation percent (%)” value in data set [1] (0 h) was 0.02%; in data set [1] (0.5 h), 0.13%; in data set [1] (1 h) it was 0.21%; in data set [1] (2 h) it was 0.41%; in data set [1] (3 h), 0.62%; in data set [1] (5 h) it was 0.93%. Also, the “Dissociation percent (%)” value in data set [3] (1 min) came out at 35.94%; in data set [3] (3 min) it was 47.88%; in data set [3] (5 min) it was 66.47%; in data set [3] (15 min) it was 94.56%. Also, in data set [1], the Solution result is reported as “Clear”. In data set [2], the “Solubility” value is over 300 µg/mL.
